From patent US20260317356A1, “SMALL MOLECULE MODULATORS OF OGG1” (AZKARRA THERAPEUTICS, INC., priority 2023, published 2026)
pIC50: −log10 of the molar value.

Each compound was assayed against hOGG1 (Homo sapiens, UniProt O15527) (assay: Biochemical fluorescence assay to measure enzymatic activity of hOGG1 (OGG1/APEX IC50)). Details: 1 nM OGG1+2 nM APEX+6 nM dsDNA (8-oxo-dG substrate); pH 7.5; RT 40 min; read-out: OGG1/APEX IC50.
hOGG1, sequence (O15527 12-323): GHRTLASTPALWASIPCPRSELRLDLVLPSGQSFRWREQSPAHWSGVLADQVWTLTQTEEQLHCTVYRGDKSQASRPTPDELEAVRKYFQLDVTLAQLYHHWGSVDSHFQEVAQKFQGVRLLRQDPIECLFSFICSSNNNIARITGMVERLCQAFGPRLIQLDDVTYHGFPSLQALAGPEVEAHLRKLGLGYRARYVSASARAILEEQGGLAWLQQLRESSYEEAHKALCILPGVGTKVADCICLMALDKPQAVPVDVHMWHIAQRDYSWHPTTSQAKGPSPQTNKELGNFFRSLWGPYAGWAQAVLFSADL
Set-up: Protein His-hOGG1 (12-323) was prepared; His (N); host or cells: E. coli
In short: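 His-hOGG1 (12-323, E. coli) at 1 nM with 2 nM hAPE1/APEX1, preincubated 20 min RT with compound. Then 6 nM 8-oxo-dG dsDNA substrate added, 40 min at RT in Tris pH 7.5, 100 mM KCl. TAMRA fluorescence (Ex520/Em600) converted to % inhibition vs controls; IC50 from 3-parameter fit of 10-point curve.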
With `COc1cc(NC(=O)[C@H]2CC[C@@H](N3Cc4c(C)cc(C=O)cc4NC3=O)CC2)ccc1C` [Example 78, (1s,4s)-4-(7-formyl-5-methyl-2-oxo-1,2-dihydroquinazolin-3(4H)-yl)-N-(3-methoxy-4-methylphenyl)cyclohexanecarboxamide] the pIC50 was over 7.00. For `COc1cc(NC(=O)[C@H]2CC[C@@H](N3Cc4c(C)cc(N5CC(OC)C5)cc4NC3=O)CC2)ccc1C` [Example 29, (1s,4s)-N-(3-Methoxy-4-methylphenyl)-4-(7-(3-methoxyazetidin-1-yl)-5-methyl-2-oxo-1,2-dihydroquinazolin-3(4H)-yl)cyclohexanecarboxamide], the pIC50 was over 7.00. Compound `CNCCOc1cc(C)c2c(c1)C(=O)N([C@H]1CC[C@@H](C(=O)Nc3ccc(C)c(OC)c3)CC1)C2` [Example 266, (1s,4s)-N-(3-Methoxy-4-methylphenyl)-4-(4-methyl-6-(2-(methylamino)ethoxy)-1-oxoisoindolin-2-yl)cyclohexanecarboxamide] has a pIC50 of over 7.00. Compound `Cc1cccc2c1CN([C@H]1CC[C@@H](C(=O)Nc3ccc(Cl)c(C#N)c3)CC1)C2=O` [Example 263, (1s,4s)-N-(4-Chloro-3-cyanophenyl)-4-(4-methyl-1-oxoisoindolin-2-yl)cyclohexanecarboxamide] has a pIC50 of 6.00 to 7.00. For `COc1cc(NC(=O)[C@H]2CC[C@@H](N3Cc4c(C)cnc(CNS(C)(=O)=O)c4NC3=O)CC2)ccc1C` [Example 18, (1s,4s)-N-(3-Methoxy-4-methylphenyl)-4-(5-methyl-8-(methylsulfonamidomethyl)-2-oxo-1,2-dihydropyrido[3,4-d]pyrimidin-3(4H)-yl)cyclohexanecarboxamideoxamide], the pIC50 was over 7.00. Compound `C=Cc1cccc2c1CN([C@H]1CC[C@@H](C(=O)Nc3ccc(C)c(OC)c3)CC1)C2=O` [Example 155, (1s,4s)-N-(3-Methoxy-4-methylphenyl)-4-(1-oxo-4-vinylisoindolin-2-yl)cyclohexanecarboxamide] has a pIC50 of 6.00 to 7.00. For `COc1cc(NC(=O)[C@H]2CC[C@@H](N3Cc4c(Cl)cccc4C3=O)CC2)ccc1C` [Example 149, (1s,4s)-4-(4-Chloro-1-oxoisoindolin-2-yl)-N-(3-methoxy-4-methylphenyl)cyclohexanecarboxamide], the pIC50 was 6.00 to 7.00. `COc1cc(NC(=O)[C@H]2CC[C@@H](N3Cc4c(C)cc(C(=O)O)cc4NC3=O)CC2)ccc1C` [Example 79, 3-((1s,4s)-4-(3-methoxy-4-methylphenylcarbamoyl)cyclohexyl)-5-methyl-2-oxo-1,2,3,4-tetrahydroquinazoline-7-carboxylic Acid] gave a pIC50 of 6.00 to 7.00. Compound `COc1cc(NC(=O)[C@H]2CC[C@@H](N3Cc4c(C)ccc(OCC5(C)COC5)c4NC3=O)CC2)ccc1C` [Example 23, (1s,4s)-N-(3-Methoxy-4-methylphenyl)-4-(5-methyl-8-((3-methyloxetan-3-yl)methoxy)-2-oxo-1,2-dihydroquinazolin-3(4H)-yl)cyclohexanecarboxamide] has a pIC50 of 6.00 to 7.00. Work on `COc1cc(NC(=O)[C@H]2CC[C@@H](N3Cc4c(C)cc(C=O)cc4C3=O)CC2)ccc1C` [Example 210, (1s,4s)-4-(6-Formyl-4-methyl-1-oxoisoindolin-2-yl)-N-(3-methoxy-4-methylphenyl)cyclohexanecarboxamide] yielded a pIC50 of 6.00 to 7.00. `COc1ccc(NC(=O)[C@]2(C)CC[C@@H](N3Cc4c(C)cccc4NC3=O)CC2)cc1Cl` (single isomer, unassigned) [Example 104, (1r,4r)-N-(3-chloro-4-methoxyphenyl)-1-methyl-4-(5-methyl-2-oxo-1,2-dihydroquinazolin-3(4H)-yl)cyclohexanecarboxamide] gave a pIC50 of 5.00 to 6.00. In the case of `COc1cc(NC(=O)[C@H]2CC[C@@H](N3Cc4c(C)cc(OCc5ncc[nH]5)cc4C3=O)CC2)ccc1C` [Example 226, (1s,4s)-4-(6-((1H-Imidazol-2-yl)methoxy)-4-methyl-1-oxoisoindolin-2-yl)-N-(3-methoxy-4-methylphenyl)cyclohexanecarboxamide], the pIC50 was 6.00 to 7.00. Work on `Cc1cccc2c1CN([C@H]1CC[C@@H](C(=O)Nc3ccc4oncc4c3)CC1)C2=O` [Example 275, (1s,4s)-N-(benzo[d]isoxazol-5-yl)-4-(4-methyl-1-oxoisoindolin-2-yl)cyclohexanecarboxamide] yielded a pIC50 of 6.00 to 7.00. Compound `Cc1ccc(NC(=O)[C@H]2CC[C@@H](N3Cc4c(C)cccc4C3=O)CC2)cc1C1COC1` [Example 125, (1s,4s)-4-(4-Methyl-1-oxoisoindolin-2-yl)-N-(4-methyl-3-(oxetan-3-yl)phenyl)cyclohexane-1-carboxamide] has a pIC50 of under 5.00. `COCc1ccc(C)c2c1NC(=O)N([C@H]1CC[C@@H](C(=O)Nc3ccc(C)c(OC)c3)CC1)C2` [Example 1, (1s,4s)-N-(3-Methoxy-4-methylphenyl)-4-(8-(methoxymethyl)-5-methyl-2-oxo-1,2-dihydroquinazolin-3(4H)-yl)cyclohexanecarboxamide] showed a pIC50 of 5.00 to 6.00. For `COc1cc(NC(=O)[C@H]2CC[C@@H](N3Cc4c(C)cc(NCC5(F)CNC5)cc4C3=O)CC2)ccc1C` [Example 140, (1s,4s)-4-(6-(((3-Fluoroazetidin-3-yl)methyl)amino)-4-methyl-1-oxoisoindolin-2-yl)-N-(3-methoxy-4-methylphenyl)cyclohexanecarboxamide], the pIC50 was over 7.00. Work on `O=C1c2cccc(Br)c2CN1[C@H]1CC[C@@H](C(=O)Nc2ccc3c(c2)OCO3)CC1` [Example 185, (1s,4s)-N-(Benzo[d][1,3]dioxol-5-yl)-4-(4-bromo-1-oxoisoindolin-2-yl)cyclohexanecarboxamide] yielded a pIC50 of 5.00 to 6.00. For `COc1cc(NC(=O)[C@H]2CC[C@@H](N3Cc4c(C)ccc(C5CC5)c4NC3=O)CC2)ccc1C` [Example 39, (1s,4s)-4-(8-Cyclopropyl-5-methyl-2-oxo-1,2-dihydroquinazolin-3(4H)-yl)-N-(3-methoxy-4-methylphenyl)cyclohexanecarboxamide], the pIC50 was over 7.00. Work on `COc1cc(NC(=O)[C@H]2CC[C@@H](N3Cc4c(cccc4C4CC4)C3=O)CC2)ccc1C` [Example 151, (1s,4s)-4-(4-Cyclopropyl-1-oxoisoindolin-2-yl)-N-(3-methoxy-4-methylphenyl)cyclohexanecarboxamide] yielded a pIC50 of 5.00 to 6.00. Work on `COc1cc(NC(=O)[C@H]2CC[C@@H](N3Cc4c(C)cc(O)cc4OC3=O)CC2)ccc1C` [Example 116, (1s,4s)-4-(7-hydroxy-5-methyl-2-oxo-2H-benzo[e][1,3]oxazin-3(4H)-yl)-N-(3-methoxy-4-methylphenyl)cyclohexane-1-carboxamide] yielded a pIC50 of 6.00 to 7.00. `Cc1cccc2c1CN([C@H]1CC[C@@H](C(=O)Nc3ccc(Cl)c(Cl)c3)CC1)C2=O` [Example 237, (1s,4s)-N-(3,4-Dichlorophenyl)-4-(4-methyl-1-oxoisoindolin-2-yl)cyclohexanecarboxamide] was tested, and the pIC50 was 6.00 to 7.00. With `COc1cc(NC(=O)[C@H]2CC[C@@H](N3Cc4c(Br)cc(N)cc4C3=O)CC2)ccc1C` [Example 165, (1s,4s)-4-(6-Amino-4-bromo-1-oxoisoindolin-2-yl)-N-(3-methoxy-4-methylphenyl)cyclohexanecarboxamide] the pIC50 was 6.00 to 7.00. `Cc1cc(NC(=O)[C@H]2CC[C@@H](N3Cc4c(C)cccc4C3=O)CC2)ccc1Cl` [Example 225, (1s,4s)-N-(4-Chloro-3-methylphenyl)-4-(4-methyl-1-oxoisoindolin-2-yl)cyclohexanecarboxamide] showed a pIC50 of 6.00 to 7.00.
